# Biological target: T1, p53 Y220C (Homo sapiens, UniProt P04637, Y220C)
# T1 construct: The recombinant protein was a truncation mutant containing only amino acids 94-312 of p53; made in house; host or cells: E. coli
# Experiment: In vitro DNA binding activity assay (HTRF / TR-FRET): stabilization of p53 Y220C and increase of its DNA binding activity
# Assay type: biochemical
# Conditions: recombinant His-tagged p53 Y220C DNA binding domain (aa 94-312), biotin-labeled consensus DNA, incubated at 27° C. or 29° C. for 60 min
# Outline: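 Stabilization of the mutant is inferred from increased binding of His-tagged p53 Y220C to a biotin-labeled consensus DNA, detected by HTRF with europium-streptavidin and APC-anti-His antibody. The concentration giving a 50% rise over compound-free binding is reported as SC150.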
# T1 sequence (P04637 94-312, change not shown): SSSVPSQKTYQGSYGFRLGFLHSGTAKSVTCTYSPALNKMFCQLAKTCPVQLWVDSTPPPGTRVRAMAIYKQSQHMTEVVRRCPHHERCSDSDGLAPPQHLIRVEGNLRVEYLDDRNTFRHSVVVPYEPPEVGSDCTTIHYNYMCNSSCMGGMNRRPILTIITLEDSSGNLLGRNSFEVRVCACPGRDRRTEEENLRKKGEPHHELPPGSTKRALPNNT
row,SMILES,SC150 (concentration of the compound required to increase the DNA binding activity by 50%)
1,"CNC(=O)c1ccc(NCC#Cc2cc3c(N[C@H]4CC[C@H](N5CC6(COC6)C5)CC4)cccc3n2CC(F)(F)F)c(OCCOC)c1 [Compound 236A, 3-(2-methoxyethoxy)-N-methyl-4-{[3-(4-{[(1R,4R)-4-{2-oxa-6-azaspiro[3.3]heptan-6-yl}cyclohexyl]amino}-1-(2,2,2-trifluoroethyl)-1H-indol-2-yl)prop-2-yn-1-yl]amino} benzamide]",+ (+ = 0 μM ≤ SC150 < 0.05 μM)
2,"CN(C)[C@H]1CC[C@H](Nc2cccc3c2cc(C#CCOc2ccc(S(C)(=O)=O)cc2N)n3CC(F)(F)F)CC1 [Compound 100A, (1R,4R)-N^4-{2-[3-(2-amino-4-methane-sulfonylphenoxy)prop-1-yn-1-yl]-1-(2,2,2-trifluoroethyl)-1H-indol-4-yl}-N^1,N^1-dimethylcyclohexane-1,4-diamine]",+ (+ = 0 μM ≤ SC150 < 0.05 μM)
3,"CCS(=O)(=O)c1ccc(NCC#Cc2cc3c(N[C@H]4CC[C@@H](N(C)C)CC4)cccc3n2CC(F)(F)F)c(OC)c1 [Compound 120A, (1S,4S)—N^4-[2-(3-{[4-(ethanesulfonyl)-2-methoxyphenyl]amino}prop-1-yn-1-yl)-1-(2,2,2-trifluoroethyl)-1H-indol-4-yl]-N^1,N^1-dimethylcyclohexane-1,4-diamine]",+ (+ = 0 μM ≤ SC150 < 0.05 μM)
4,"COCCN(CCOC)[C@H]1CC[C@H](Nc2cccc3c2cc(C#CCNc2ccc(S(N)(=O)=O)cc2OC)n3CC(F)(F)F)CC1 [Compound 61A, 3-methoxy-4-{[3-(4-{[(1R,4R)-4-[bis(2-methoxyethyl)amino]cyclo-hexyl]amino}-1-(2,2,2-trifluoroethyl)-1H-indol-2-yl)prop-2-yn-1-yl]amino}benzene-1-sulfonamide]",+ (+ = 0 μM ≤ SC150 < 0.05 μM)
5,"CS(=O)(=O)c1ccc(OCC#Cc2cc3c(N[C@H]4CC[C@@H](N5CC6(COC6)C5)CC4)cccc3n2CC(F)(F)F)c(N)c1 [Compound 233A, 2-[3-(2-amino-4-methanesulfonyl-phenoxy)prop-1-yn-1-yl]-N-[(1S,4S)-4-{2-oxa-6-azaspiro[3.3]heptan-6-yl}cyclohexyl]-1-(2,2,2-trifluoroethyl)-1H-indol-4-amine]",++ (++ = 0.05 μM ≤ SC150 < 0.1 μM)
6,"CCOC(=O)c1ccc(NCC#Cc2cc3c(N[C@H]4CCN(C(C)C)C[C@H]4F)cccc3n2CC(F)(F)F)c(OC)c1 (racemic) [Compound 797A, ethyl 4-((3-(4-(((3R,4S)-3-fluoro-1-isopropylpiperidin-4-yl)amino)-1-(2,2,2-trifluoroethyl)-1H-indol-2-yl)prop-2-yn-1-yl)amino)-3-methoxybenzoate]",+ (+ = 0 μM ≤ SC150 < 0.05 μM)
7,"N#CCOc1cc(S(N)(=O)=O)ccc1NCC#Cc1cc2c(NC3CCC(N4CC5(COC5)C4)CC3)cccc2n1CC(F)(F)F [Compound 259A, 3-(cyanomethoxy)-4-{[3-(4-{[(1R,4R)-4-{2-oxa-6-azaspiro[3.3]heptan-6-yl}cyclo-hexyl]amino}-1-(2,2,2-trifluoroethyl)-1H-indol-2-yl)prop-2-yn-1-yl]amino}benzene-1-sulfonamide]",+ (+ = 0 μM ≤ SC150 < 0.05 μM)
8,"COc1cc(S(=O)(=O)N2CCN(C(C)=O)CC2)ccc1NCC#Cc1cc2c(NC3CCS(=O)(=O)CC3)cccc2n1CC(F)(F)F [Compound 1045A, 4-({2-[3-({4-[(4-acetylpiperazin-1-yl)sulfonyl]-2-methoxyphenyl}amino)prop-1-yn-1-yl]-1-(2,2,2-trifluoroethyl)-1H-indol-4-yl}amino)-1λ^6-thiane-1,1-dione]",+ (+ = 0 μM ≤ SC150 < 0.05 μM)
9,"N#CCOc1cc(S(N)(=O)=O)ccc1NCC#Cc1cc2c(N[C@H]3CC[C@H](N4CCOCC4)CC3)cccc2n1CC(F)(F)F [Compound 342A, 3-(cyanomethoxy)-4-{[3-(4-{[(1R,4R)-4-(morpholin-4-yl)cyclohexyl]amino}-1-(2,2,2-trifluoroethyl)-1H-indol-2-yl)prop-2-yn-1-yl]amino}benzene-1-sulfonamide]",+ (+ = 0 μM ≤ SC150 < 0.05 μM)
10,"COc1cc(S(C)(=O)=O)ccc1NCC#Cc1cc2c(N[C@@H]3CCC[C@H](n4nn[nH]c4=O)C3)cccc2n1CC(F)(F)F [Compound 448A, 1-[(1S,3R)-3-[(2-{3-[(4-methanesulfonyl-2-methoxyphenyl)amino]prop-1-yn-1-yl}-1-(2,2,2-trifluoroethyl)-1H-indol-4-yl)amino]cyclo-hexyl]-4,5-dihydro-1H-1,2,3,4-tetrazol-5-one]",++ (++ = 0.05 μM ≤ SC150 < 0.1 μM)
11,"COc1cc(C(N)=O)ccc1NCC#Cc1cc2c(N[C@H]3CC[C@@H](N(C)C)CC3)cccc2n1CC(F)(F)F [Compound 613A, 3-methoxy-4-{[3-(4-{[(1S,4S)-4-(dimethylamino)cyclohexyl]amino}-1-(2,2,2-trifluoroethyl)-1H-indol-2-yl)prop-2-yn-1-yl]amino}benzamide]",+ (+ = 0 μM ≤ SC150 < 0.05 μM)
12,"COc1cc(C(=O)O)ccc1NCC#Cc1cc2c(NC3CCN(C[C@@H](C)O)CC3F)cccc2n1CC(F)(F)F (mixture of isomers) [Compound 911A, 4-{[3-(4-{[(3S,4R)-3-fluoro-1-(2-hydroxypropyl)piperidin-4-yl]amino}-1-(2,2,2-trifluoroethyl)-1H-indol-2-yl)prop-2-yn-1-yl]amino}-3-methoxybenzoic acid]",+ (+ = 0 μM ≤ SC150 < 0.05 μM)

# More lines, now with the values ahead:
row,SC150 (concentration of the compound required to increase the DNA binding activity by 50%),SMILES
1,+ (+ = 0 μM ≤ SC150 < 0.05 μM),"COc1cc(S(C)(=O)=O)ccc1NCC#Cc1cc2c(NC3CC[N+]4(CC3)COCC(O)C4)cccc2n1CC(F)(F)F (stereo not shown) [Compound 674A, 4-hydroxy-9-[(2-{3-[(4-methanesulfonyl-2-methoxyphenyl)amino]prop-1-yn-1-yl}-1-(2,2,2-trifluoroethyl)-1H-indol-4-yl)amino]-2-oxa-6λ^5-azaspiro[5.5]undecan-6-ylium]"
2,++ (++ = 0.05 μM ≤ SC150 < 0.1 μM),"COc1cc(S(C)(=O)=O)ccc1NCC#Cc1cc2c(N[C@@H]3CCCC[C@@H]3N)cccc2n1CC(F)(F)F [Compound 28A, (1R,2S)-N^1-(2-{3-[(4-methanesulfonyl-2-methoxyphenyl)amino]prop-1-yn-1-yl}-1-(2,2,2-trifluoroethyl)-1H-indol-4-yl)cyclo-hexane-1,2-diamine]"
3,++++ (++++ = 0.2 μM ≤ SC150 < 1 μM),"COc1cc(S(C)(=O)=O)ccc1NCC#Cc1cc2c(NC(=O)NC3CCN(CCO)CC3)cccc2n1CC(F)(F)F [Compound 17A, 1-[1-(2-hydroxyethyl)piperidin-4-yl]-3-(2-{3-[(4-methanesulfonyl-2-methoxyphenyl)amino]prop-1-yn-1-yl}-1-(2,2,2-trifluoroethyl)-1H-indol-4-yl)urea]"
4,+ (+ = 0 μM ≤ SC150 < 0.05 μM),"CCC(=O)OCCN1CCC(Nc2cccc3c2cc(C#CCNc2ccc(S(N)(=O)=O)cc2OC)n3CC(F)(F)F)CC1 [Compound 608A, 2-{4-[(2-{3-[(2-methoxy-4-sulfamoylphenyl)amino]prop-1-yn-1-yl}-1-(2,2,2-trifluoroethyl)-1H-indol-4-yl)amino]piperidin-1-yl}ethyl propanoate]"
5,+ (+ = 0 μM ≤ SC150 < 0.05 μM),"COc1cc(S(C)(=O)=O)ccc1NCC#Cc1cc2c(NC3CCN(CCOCCOCCO)CC3)cccc2n1CC(F)(F)F [Compound 544A, 2-[2-(2-{4-[(2-{3-[(4-methanesulfonyl-2-methoxyphenyl)amino]prop-1-yn-1-yl}-1-(2,2,2-trifluoroethyl)-1H-indol-4-yl)amino]piperidin-1-yl}ethoxy)ethoxy]ethan-1-ol]"
6,+ (+ = 0 μM ≤ SC150 < 0.05 μM),"COc1cc(S(C)(=O)=O)ccc1NCC#Cc1cc2c(N[C@H]3CC[C@H](N4CC[S+]([O-])CC4)CC3)cccc2n1CC(F)(F)F [Compound 364A, 4-[(1R,4R)-4-[(2-{3-[(4-methanesulfonyl-2-methoxyphenyl)amino]prop-1-yn-1-yl}-1-(2,2,2-trifluoroethyl)-1H-indol-4-yl)amino]cyclohexyl]-1λ^4-thiomorpholin-1-one]"
7,+ (+ = 0 μM ≤ SC150 < 0.05 μM),"COCC(CN1CCC(Nc2cccc3c2cc(C#CCNc2ccc(S(C)(=O)=O)cc2OC)n3CC(F)(F)F)CC1)OC (stereo not shown) [Compound 580A, N-[1-(2,3-dimethoxypropyl)piperidin-4-yl]-2-{3-[(4-methanesulfonyl-2-methoxyphenyl)amino]prop-1-yn-1-yl}-1-(2,2,2-trifluoroethyl)-1H-indol-4-amine]"
8,+ (+ = 0 μM ≤ SC150 < 0.05 μM),COc1cc(S(C)(=O)=O)ccc1NCC#Cc1cc2c(NC3CCN(C(=O)CC#N)CC3)cccc2n1CC(F)(F)F [Compound 746A]
9,+ (+ = 0 μM ≤ SC150 < 0.05 μM),"COc1cc(S(C)(=O)=O)ccc1NCC#Cc1cc2c(N[C@H]3CCN(C(=O)CN(C)C)C[C@H]3F)cccc2n1CC(F)(F)F [Compound 856A, 2-(dimethylamino)-1-[(3R,4S)-3-fluoro-4-[(2-{3-[(4-methanesulfonyl-2-methoxyphenyl)amino]prop-1-yn-1-yl}-1-(2,2,2-trifluoroethyl)-1H-indol-4-yl)amino]piperidin-1-yl]ethan-1-one]"
10,+ (+ = 0 μM ≤ SC150 < 0.05 μM),COc1cc(S(=O)(=O)N2CCN(C(C)=O)CC2)ccc1NCC#Cc1cc2c(NC3CCN(C)CC3)cccc2n1CC(F)(F)F [Compound 479A]
